Assay results: patent publication US20170217976A1, “6-(AMINO ACID)-MORPHINAN DERIVATIVES IN COMBINATION WITH PERMEATION […] FOR USE AS AN ORALLY, […], TRA[…] NASALLY AD[…]” (C[…], priority 2014, published 2017)
pEC50, pKi: −log10 of the molar value. Where two headings read alike, the source gives them in different places.

Experiments:
[1] = biological target: T1, MOR (Rattus norvegicus, UniProt P33535); assay: Opioid receptor binding, MOR, rat brain membranes; settings: for pKi: Binding Ki MOR; for Ki: in vitro binding assay, rat brain membranes
T1 construct: from tissue
T1 sequence (P33535 whole entry): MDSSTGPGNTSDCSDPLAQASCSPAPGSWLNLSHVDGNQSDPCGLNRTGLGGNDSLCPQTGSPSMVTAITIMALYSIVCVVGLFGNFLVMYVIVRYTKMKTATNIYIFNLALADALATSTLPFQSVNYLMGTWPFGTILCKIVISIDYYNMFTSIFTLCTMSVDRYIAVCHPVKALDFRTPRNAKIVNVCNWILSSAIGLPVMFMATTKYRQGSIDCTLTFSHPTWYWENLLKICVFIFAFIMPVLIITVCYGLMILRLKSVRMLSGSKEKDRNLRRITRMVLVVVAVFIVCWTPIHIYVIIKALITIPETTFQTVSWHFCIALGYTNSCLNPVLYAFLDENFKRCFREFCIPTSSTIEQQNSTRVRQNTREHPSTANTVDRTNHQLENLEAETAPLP

[2] = biological target: T2, KOR (Cavia porcellus, UniProt P41144); assay: Opioid receptor binding, KOR, guinea pig brain membranes; settings: for pKi: Binding Ki KOR; for Ki: in vitro binding assay, guinea pig brain membranes
T2 construct: from tissue
T2 sequence (P41144 whole entry): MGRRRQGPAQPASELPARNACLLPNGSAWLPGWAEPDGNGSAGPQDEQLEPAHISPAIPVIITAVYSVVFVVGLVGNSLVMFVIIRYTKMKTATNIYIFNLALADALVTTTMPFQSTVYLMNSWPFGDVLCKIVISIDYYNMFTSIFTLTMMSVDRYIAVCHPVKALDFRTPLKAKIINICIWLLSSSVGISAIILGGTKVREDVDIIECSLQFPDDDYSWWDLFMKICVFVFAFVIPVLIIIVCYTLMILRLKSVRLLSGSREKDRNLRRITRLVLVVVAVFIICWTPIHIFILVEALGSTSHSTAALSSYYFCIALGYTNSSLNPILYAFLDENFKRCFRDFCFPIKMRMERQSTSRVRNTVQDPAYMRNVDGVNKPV

[3] = biological target: T3, DOR (Rattus norvegicus, UniProt P33533); assay: Opioid receptor binding, DOR, rat brain membranes; settings: for pKi: Binding Ki DOR; for Ki: in vitro binding assay, rat brain membranes
T3 construct: from tissue
T3 sequence (P33533 whole entry): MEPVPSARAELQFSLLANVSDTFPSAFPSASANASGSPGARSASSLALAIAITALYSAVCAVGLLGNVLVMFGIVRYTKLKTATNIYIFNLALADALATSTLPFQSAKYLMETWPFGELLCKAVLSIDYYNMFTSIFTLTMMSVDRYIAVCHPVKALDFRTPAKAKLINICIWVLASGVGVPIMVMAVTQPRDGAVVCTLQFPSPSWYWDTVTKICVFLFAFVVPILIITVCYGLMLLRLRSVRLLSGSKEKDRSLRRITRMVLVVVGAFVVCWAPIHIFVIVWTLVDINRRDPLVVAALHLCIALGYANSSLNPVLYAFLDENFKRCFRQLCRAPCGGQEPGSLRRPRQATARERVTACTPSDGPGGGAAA

[4] = biological target: T4, human MOP expressed in CHO cells (Homo sapiens, UniProt P35372); assay: [35S]GTPγS binding, antagonism at MOR (Ke against DAMGO); format: biochemical; settings: for Kb: Table 1-6, antagonist Ke measured against DAMGO
T4 construct: expressed in transfected cells; host or cells: CHO cells (per the unit's head)
T4 sequence (P35372 whole entry): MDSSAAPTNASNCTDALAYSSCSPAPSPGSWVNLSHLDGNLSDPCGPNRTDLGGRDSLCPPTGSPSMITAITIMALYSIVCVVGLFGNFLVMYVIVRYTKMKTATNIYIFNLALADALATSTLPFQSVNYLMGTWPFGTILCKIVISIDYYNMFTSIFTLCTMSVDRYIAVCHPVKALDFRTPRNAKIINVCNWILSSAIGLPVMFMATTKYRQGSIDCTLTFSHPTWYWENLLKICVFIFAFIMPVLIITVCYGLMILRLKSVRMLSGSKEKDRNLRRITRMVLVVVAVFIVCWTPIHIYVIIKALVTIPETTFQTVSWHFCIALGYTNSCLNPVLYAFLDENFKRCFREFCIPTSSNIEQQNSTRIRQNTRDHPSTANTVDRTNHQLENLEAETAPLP

[5] = Table 1-6, guinea pig brain membranes
[6] = Table 2-6, guinea pig brain membranes
[7] = Table 1-4, guinea pig brain membranes

Row | SMILES | pKi ([1]; Table 1-6, rat brain membranes) | pKi ([1]; Table 2-6, rat brain membranes) | pKi [2, 5] | pKi [2, 6] | pKi ([3]; Table 1-6, rat brain membranes) | pKi ([3]; Table 2-6, rat brain membranes) | also measured
1 | CO[C@@]12CCC(=O)[C@@H]3Oc4c(O)ccc5c4[C@@]31CCN(CC1CC1)[C@@H]2C5 [Compound 14-OMe-NTX, 14-O-Methylnaltrexone, reference compound] | 9.34 | 9.34 | 8.93 | 8.93 | 8.10 | 8.10 | pEC50 [4]: < 5.00; Kb ([4]; [35S]GTPγS binding, MOR Ke): 0.49 nM
2 | CO[C@@]12CC[C@@H](NCC(=O)O)[C@@H]3Oc4c(O)ccc5c4[C@@]31CCN(CC1CC1)[C@@H]2C5 [Compound 62] | 8.88 | 8.88 | 8.03 | 8.03 | 8.32 | 8.32 | pEC50 [4]: < 5.00; Kb ([4]; [35S]GTPγS binding, MOR Ke): 0.19 nM
3 | CO[C@@]12CC[C@H](NCCCC(=O)O)[C@@H]3Oc4c(O)ccc5c4[C@@]31CCN(CC1CC1)[C@@H]2C5 [Compound 65] | 8.92 | 8.92 | 8.27 | 8.27 | 7.97 | 7.97 | pEC50 [4]: < 5.00; Kb ([4]; read-out: [35S]GTPγS binding, MOR Ke): 0.94 nM
4 | COC12CCC(NC(C(=O)O)C(C)C)C3Oc4c(O)ccc5c4C31CCN(CC1CC1)C2C5 (single isomer, unassigned) [Compound 68] | 9.36 | 9.36 | 8.48 | 8.48 | 9.28 | 9.28 | 
5 | CO[C@@]12CC[C@H](N[C@@H](CC(C)C)C(=O)OC(C)(C)C)[C@@H]3Oc4c(O)ccc5c4[C@@]31CCN(C)[C@@H]2C5 [40-t-Bu ester] |  |  |  |  |  |  | Ki ([1]; Binding Ki (nM) MOR): 0.087 nM; Ki ([2]; Binding Ki (nM) KOR): 8.07 nM; Ki ([3]; Binding Ki (nM) DOR): 0.13 nM
6 | O=C(O)CN[C@H]1CC[C@@]2(O)[C@H]3Cc4ccc(O)c5c4[C@@]2(CCN3CC2CC2)[C@H]1O5 [Compound 67] | 9.06 |  | 8.55 |  | 7.88 |  | 
7 | COC12CCC(NC(C(=O)O)C(C)C)C3Oc4c(O)ccc5c4C31CCN(CC1CC1)C2C5 (single isomer, unassigned) [Compound 70] | 9.21 | 9.21 | 8.45 | 8.45 | 9.15 | 9.15 | 
8 | CO[C@@]12CC[C@@H](N[C@@H](Cc3ccccc3)C(=O)OC(C)(C)C)[C@@H]3Oc4c(O)ccc5c4[C@@]31CCN(CC1CC1)[C@@H]2C5 [58-tBu ester] |  | 8.62 |  | 7.88 |  | 8.34 | 
9 | CN1CCC23c4c5ccc(O)c4OC2C(NCC(=O)OC(C)(C)C)CCC3(OCCCc2ccccc2)C1C5 (stereo not drawn) [8-t-Bu ester] |  |  |  |  |  |  | Ki ([1]; read-out: Binding Ki (nM) MOR): 1.03 nM; Ki ([2]; read-out: Binding Ki (nM) KOR): 2.02 nM; Ki ([3]; read-out: Binding Ki (nM) DOR): 0.92 nM
10 | COC12CCC(NC(C(=O)O)C(C)C)C3Oc4c(O)ccc5c4C31CCN(C)C2C5 (single isomer, unassigned) [Compound 30] |  |  |  |  |  |  | Ki ([1]; Binding Ki (nM) MOR): 1.7 nM; pKi ([1]; Table 1-4, rat brain membranes): 8.77; Ki ([2]; Binding Ki (nM) KOR): 202 nM; pKi [2, 7]: 6.69; Ki ([3]; Binding Ki (nM) DOR): 1.93 nM; pKi ([3]; Table 1-4, rat brain membranes): 8.71
11 | CO[C@@]12CC[C@H](N[C@@H](C(=O)OC(C)(C)C)C(C)C)[C@@H]3Oc4c(O)ccc5c4[C@@]31CCN(CC1CC1)[C@@H]2C5 [70-tBu ester] |  | 9.20 |  | 7.73 |  | 9.29 | 
12 | CO[C@@]12CC[C@@H](N[C@H](C(=O)OC(C)(C)C)C(C)C)[C@@H]3Oc4c(O)ccc5c4[C@@]31CCN(CC1CC1)[C@@H]2C5 [69-tBu ester] |  | 8.91 |  | 8.36 |  | 9.15 | 
13 | CO[C@@]12CC[C@H](N[C@@H](CCC(N)=O)C(=O)OC(C)(C)C)[C@@H]3Oc4c(O)ccc5c4[C@@]31CCN(C)[C@@H]2C5 [17-t-Bu ester] |  |  |  |  |  |  | Ki ([1]; Binding Ki (nM) MOR): 0.18 nM; Ki ([2]; Binding Ki (nM) KOR): 8.97 nM; Ki ([3]; Binding Ki (nM) DOR): 0.18 nM
14 | CO[C@@]12CC[C@@H](N[C@@H](CCC(=O)OC(C)(C)C)C(=O)OC(C)(C)C)[C@@H]3Oc4c(O)ccc5c4[C@@]31CCN(C)[C@@H]2C5 [20-t-Bu ester] |  |  |  |  |  |  | Ki ([1]; read-out: Binding Ki (nM) MOR): 1.53 nM; Ki ([2]; read-out: Binding Ki (nM) KOR): 81.5 nM; Ki ([3]; read-out: Binding Ki (nM) DOR): 0.19 nM
15 | COC12CCC(NCCC(=O)O)C3Oc4c(O)ccc5c4C31CCN(C)C2C5 (single isomer, unassigned) [Compound 21] |  |  |  |  |  |  | Ki ([1]; Binding Ki (nM) MOR): 1.3 nM; pKi ([1]; Table 1-4, rat brain membranes): 8.89; Ki ([2]; Binding Ki (nM) KOR): 182 nM; pKi [2, 7]: 6.74; Ki ([3]; Binding Ki (nM) DOR): 60 nM; pKi ([3]; Table 1-4, rat brain membranes): 7.22
16 | CO[C@@]12CC[C@@H](N[C@@H](C(=O)OC(C)(C)C)C(C)C)[C@@H]3Oc4c(O)ccc5c4[C@@]31CCN(C)[C@@H]2C5 [31-t-Bu ester] |  |  |  |  |  |  | Ki ([1]; read-out: Binding Ki (nM) MOR): 1.98 nM; Ki ([2]; read-out: Binding Ki (nM) KOR): 206 nM; Ki ([3]; read-out: Binding Ki (nM) DOR): 0.21 nM
17 | COC12CCC(NC(C(=O)O)C(C)C)C3Oc4c(O)ccc5c4C31CCN(CC1CC1)C2C5 (single isomer, unassigned) [Compound 69] | 9.18 | 9.18 | 8.52 | 8.52 | 8.87 | 8.87 | 
18 | CO[C@@]12CC[C@@H](N[C@@H](C(=O)OC(C)(C)C)C(C)C)[C@@H]3Oc4c(O)ccc5c4[C@@]31CCN(CC1CC1)[C@@H]2C5 [71-tBu ester] |  | 8.71 |  | 7.82 |  | 9.62 | 
